Test results: publication PMC7316778 (Nature Communications, 2020)

Legend:
[1] = target: T1, FES^S700C (Homo sapiens, UniProt P07332, S700C); assay: PamChip microarray peptide phosphorylation; assay type: biochemical; design: human FES cDNA encoding residues 448–822 or human FER cDNA encoding residues 448–820 was amplified by PCR; made in house; host or cells: E. coli BL21(DE3), co-expressing YopH phosphatase; conditions: peptide substrate phosphorylated by FES - S700C
[2] = target: T1, FES^S700C; assay: In vitro TR-FRET kinase assay; assay type: biochemical; design: human FES cDNA encoding residues 448–822 or human FER cDNA encoding residues 448–820 was amplified by PCR; made in house; host or cells: E. coli BL21(DE3), co-expressing YopH phosphatase; conditions: for IC50: read-out: pIC50 FES^S700C (converted); for Residual activity (%): FES S700C, mean, n=3; for Apparent fold selectivity: IC50 on FES^WT divided by IC50 on FES^S700C

T1 sequence (P07332 448-822 S700C): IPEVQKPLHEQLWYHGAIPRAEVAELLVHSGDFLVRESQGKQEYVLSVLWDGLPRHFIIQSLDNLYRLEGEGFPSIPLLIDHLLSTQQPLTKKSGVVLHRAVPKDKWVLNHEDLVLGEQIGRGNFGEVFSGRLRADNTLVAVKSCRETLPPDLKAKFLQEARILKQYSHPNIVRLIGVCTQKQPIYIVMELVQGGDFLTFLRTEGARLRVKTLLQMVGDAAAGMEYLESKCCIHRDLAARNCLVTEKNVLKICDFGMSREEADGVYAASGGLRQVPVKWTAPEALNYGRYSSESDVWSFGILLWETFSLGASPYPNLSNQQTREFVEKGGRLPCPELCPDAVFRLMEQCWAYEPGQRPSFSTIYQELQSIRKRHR

## EPOR_361_373 (SEHAQDTYLVLDK; UniProt P19235 361-373, looked up, fragment)
[1]
  Relative phosphorylation (% of highest signal): 5.7 % of highest signal

## AMPE_5_17 (EREGSKRYCIQTK; UniProt Q07075 5-17, looked up, fragment)
[1]
  Relative phosphorylation (% of highest signal): -0.5 % of highest signal

## VGFR1_1320_1332_C1320K/C1321K (KKSPPPDYNSVVL; UniProt P17948 1320-1332, looked up, variant C1320K C1321K)
[1]
  Relative phosphorylation (% of highest signal): 4.5 % of highest signal

## CCC(=O)Nc1ccccc1Nc1nc(Nc2ccccc2OC)ncc1Cl [Compound 5]
[2]; TR-FRET assay, 5 µM ATP, n = 3
  pIC50 FES^S700C: low inhibitory potency
  IC50: 6310 nM

## VGFR1_1235_1247 (ATSMFDDYQGDSS; UniProt P17948 1235-1247, looked up, fragment)
[1]
  Relative phosphorylation (% of highest signal): -0.074 % of highest signal

## ZBT16_621_633 (LRTHNGASPYQCT; UniProt Q05516 621-633, looked up, fragment)
[1]
  Relative phosphorylation (% of highest signal): 1.1 % of highest signal

## CCC(=O)Nc1ccccc1Nc1nc(Nc2ccccc2OC)ncc1Cl [Supplementary Figure 1f]
[2]; log[inhibitor] (M) = -5
  Residual activity (%): 51.0323%
[2]; log[inhibitor] (M) = -5.52288
  Residual activity (%): 52.0081%
[2]; log[inhibitor] (M) = -6
  Residual activity (%): 80.9285%
[2]; log[inhibitor] (M) = -6.52288
  Residual activity (%): 101.29%
[2]; log[inhibitor] (M) = -7
  Residual activity (%): 99.7119%
[2]; log[inhibitor] (M) = -7.52288
  Residual activity (%): 103.019%
[2]; log[inhibitor] (M) = -8
  Residual activity (%): 101.749%

## COc1ccccc1Nc1ncc(Cl)c(Nc2ccccc2S(=O)(=O)C(C)C)n1 [Supplementary Figure 1c]
[2]; log[inhibitor] (M) = -5
  Residual activity (%): 0.2233%
[2]; log[inhibitor] (M) = -5.52288
  Residual activity (%): 0.2556%
[2]; log[inhibitor] (M) = -6
  Residual activity (%): -0.06933%
[2]; log[inhibitor] (M) = -6.52288
  Residual activity (%): 4.851%
[2]; log[inhibitor] (M) = -7
  Residual activity (%): 14.3041%
[2]; log[inhibitor] (M) = -7.52288
  Residual activity (%): 33.9502%
[2]; log[inhibitor] (M) = -8
  Residual activity (%): 66.7428%
[2]; log[inhibitor] (M) = -8.52288
  Residual activity (%): 88.3714%
[2]; log[inhibitor] (M) = -9
  Residual activity (%): 94.1217%
[2]; log[inhibitor] (M) = -9.52288
  Residual activity (%): 96.7458%
[2]; log[inhibitor] (M) = -10
  Residual activity (%): 89.1056%
[2]; log[inhibitor] (M) = -10.5229
  Residual activity (%): 99.8276%
[2]; log[inhibitor] (M) = -11
  Residual activity (%): 106.567%

## VGFR2_989_1001 (EEAPEDLYKDFLT; UniProt P35968 989-1001, looked up, fragment)
[1]
  Relative phosphorylation (% of highest signal): 14.2 % of highest signal

## NTRK2_509_521 (PVIENPQYFGITN; UniProt Q16620 509-521, looked up, fragment)
[1]
  Relative phosphorylation (% of highest signal): -1.0 % of highest signal

## STAT4_686_698 (TERGDKGYVPSVF; UniProt Q14765 686-698, looked up, fragment)
[1]
  Relative phosphorylation (% of highest signal): -0.317 % of highest signal

## ODBA_340_352_D340K (KDSSAYRSVDEVN; UniProt P12694 340-352, looked up, variant D340K)
[1]
  Relative phosphorylation (% of highest signal): -0.7 % of highest signal

## DDR1_506_518 (LLLSNPAYRLLLA; UniProt Q08345 506-518, looked up, fragment)
[1]
  Relative phosphorylation (% of highest signal): -0.9 % of highest signal

## COc1ccccc1Nc1ncc(Cl)c(Nc2ccccc2S(=O)(=O)C(C)C)n1 [Compound 2]
[2]
  Apparent fold selectivity: 2.5 fold
[2]; TR-FRET assay, 5 µM ATP, n = 3
  IC50: 15.8 nM

## STAT6_634_646 (MGKDGRGYVPATI; UniProt P42226 634-646, looked up, fragment)
[1]
  Relative phosphorylation (% of highest signal): -0.6 % of highest signal

## VGFR1_1046_1058_Y1048F (DIFKNPDYVRKGD; UniProt P17948 1046-1058, looked up, variant Y1048F)
[1]
  Relative phosphorylation (% of highest signal): -0.9 % of highest signal

## EFS_246_258_Y253F (GGTDEGIFDVPLL; UniProt O43281 246-258, looked up, fragment Y253F)
[1]
  Relative phosphorylation (% of highest signal): -1.4 % of highest signal

## C=CC(=O)Nc1cccc(Nc2nc(Nc3ccccc3OC)ncc2Cl)c1 [Supplementary Figure 1d]
[2]; log[inhibitor] (M) = -5
  Residual activity (%): -0.2497%
[2]; log[inhibitor] (M) = -5.52288
  Residual activity (%): -0.5097%
[2]; log[inhibitor] (M) = -6
  Residual activity (%): -0.8205%
[2]; log[inhibitor] (M) = -6.52288
  Residual activity (%): -0.4059%
[2]; log[inhibitor] (M) = -7
  Residual activity (%): -0.7051%
[2]; log[inhibitor] (M) = -7.52288
  Residual activity (%): -0.1368%
[2]; log[inhibitor] (M) = -8
  Residual activity (%): 11.6016%
[2]; log[inhibitor] (M) = -8.52288
  Residual activity (%): 70.8547%
[2]; log[inhibitor] (M) = -9
  Residual activity (%): 85.0509%
[2]; log[inhibitor] (M) = -9.52288
  Residual activity (%): 98.0879%
[2]; log[inhibitor] (M) = -10
  Residual activity (%): 85.4934%
[2]; log[inhibitor] (M) = -10.5229
  Residual activity (%): 94.4068%
[2]; log[inhibitor] (M) = -11
  Residual activity (%): 106.971%

## VGFR2_1168_1180 (AQQDGKDYIVLPI; UniProt P35968 1168-1180, looked up, fragment)
[1]
  Relative phosphorylation (% of highest signal): 9.5 % of highest signal

## EPHA2_581_593 (QLKPLKTYVDPHT; UniProt P29317 581-593, looked up, fragment)
[1]
  Relative phosphorylation (% of highest signal): 0.144 % of highest signal

## EPHA4_921_933 (QAIKMDRYKDNFT; UniProt P54764 921-933, looked up, fragment)
[1]
  Relative phosphorylation (% of highest signal): -0.7 % of highest signal

## PERI_458_470 (QRSELDKSSAHSY; UniProt P41219 458-470, looked up, fragment)
[1]
  Relative phosphorylation (% of highest signal): -1.0 % of highest signal

## VGFR2_1207_1219_C1208S (VSDPKFHYDNTAG; UniProt P35968 1207-1219, looked up, variant C1208S)
[1]
  Relative phosphorylation (% of highest signal): 1.3 % of highest signal

## VGFR1_1049_1061 (KNPDYVRKGDTRL; UniProt P17948 1049-1061, looked up, fragment)
[1]
  Relative phosphorylation (% of highest signal): -0.7 % of highest signal

## STA5A_687_699 (LAKAVDGYVKPQI; UniProt P42229 687-699, looked up, fragment)
[1]
  Relative phosphorylation (% of highest signal): -0.9 % of highest signal

## NPT2A_501_513 (AKALGKRTAKYRW; UniProt Q06495 501-513, looked up, fragment)
[1]
  Relative phosphorylation (% of highest signal): 0.557 % of highest signal

## MK01_198_210 (IMLNSKGYTKSID; UniProt P28482 198-210, looked up, fragment)
[1]
  Relative phosphorylation (% of highest signal): -1.1 % of highest signal

## MBP_259_271 (FGYGGRASDYKSA; UniProt P02686 259-271, looked up, fragment)
[1]
  Relative phosphorylation (% of highest signal): -0.258 % of highest signal

## VINC_815_827 (KSFLDSGYRILGA; UniProt P18206 815-827, looked up, fragment)
[1]
  Relative phosphorylation (% of highest signal): 0.6 % of highest signal

## ZAP70_485_497 (ALGADDSYYTARS; UniProt P43403 485-497, looked up, fragment)
[1]
  Relative phosphorylation (% of highest signal): 7.2 % of highest signal

## MBP_263_275 (GRASDYKSAHKGF; UniProt P02686 263-275, looked up, fragment)
[1]
  Relative phosphorylation (% of highest signal): -0.5 % of highest signal

## STAT1_694_706 (DGPKGTGYIKTEL; UniProt P42224 694-706, looked up, fragment)
[1]
  Relative phosphorylation (% of highest signal): -0.9 % of highest signal

## VGFR1_1162_1174 (VQQDGKDYIPINA; UniProt P17948 1162-1174, looked up, fragment)
[1]
  Relative phosphorylation (% of highest signal): 4.4 % of highest signal

## C=CC(=O)Nc1ccccc1Nc1nc(Nc2ccccc2OC)ncc1Cl [Supplementary Figure 1e]
[2]; log[inhibitor] (M) = -5
  Residual activity (%): 5.657%
[2]; log[inhibitor] (M) = -5.52288
  Residual activity (%): 10.8053%
[2]; log[inhibitor] (M) = -6
  Residual activity (%): 28.2387%
[2]; log[inhibitor] (M) = -6.52288
  Residual activity (%): 69.3014%
[2]; log[inhibitor] (M) = -7
  Residual activity (%): 75.3706%
[2]; log[inhibitor] (M) = -7.52288
  Residual activity (%): 96.1185%
[2]; log[inhibitor] (M) = -8
  Residual activity (%): 98.0581%
[2]; log[inhibitor] (M) = -8.52288
  Residual activity (%): 106.349%
[2]; log[inhibitor] (M) = -9
  Residual activity (%): 109.01%
[2]; log[inhibitor] (M) = -9.52288
  Residual activity (%): 116.606%
[2]; log[inhibitor] (M) = -10
  Residual activity (%): 111.768%
[2]; log[inhibitor] (M) = -10.5229
  Residual activity (%): 102.117%
[2]; log[inhibitor] (M) = -11
  Residual activity (%): 99.3612%

## C=CC(=O)Nc1ccccc1Nc1nc(Nc2ccccc2OC)ncc1Cl [Compound 4]
[2]
  Apparent fold selectivity: 238 fold
[2]; TR-FRET assay, 5 µM ATP, n = 3
  IC50: 3.98 nM

## VGFR2_1046_1058 (DFGLARDIYKDPD; UniProt P35968 1046-1058, looked up, fragment)
[1]
  Relative phosphorylation (% of highest signal): 2.1 % of highest signal

## Nc1ncnc2c1ncn2[C@@H]1O[C@H](COP(=O)(O)OP(=O)(O)OP(=O)(O)O)[C@@H](O)[C@H]1O [ATP]
[2]; FES^S700C, TR-FRET, 60 min, read-out: ATP KM
  Km: 0.79 µM

## ART_004_EAIYAAPFAKKKXC
[1]
  Relative phosphorylation (% of highest signal): 8.3 % of highest signal

## VGFR3_1061_1073 (DIYKDPDYVRKGS; UniProt P35916 1061-1073, looked up, fragment)
[1]
  Relative phosphorylation (% of highest signal): 0.1 % of highest signal

## VGFR1_1206_1218 (GSSDDVRYVNAFK; UniProt P17948 1206-1218, looked up, fragment)
[1]
  Relative phosphorylation (% of highest signal): 0.24 % of highest signal

## VGFR2_944_956 (RFRQGKDYVGAIP; UniProt P35968 944-956, looked up, fragment)
[1]
  Relative phosphorylation (% of highest signal): 1.4 % of highest signal
